Data taken from ChEMBL document CHEMBL1641570, “New hydroxystilbenoid derivatives endowed with neuroprotective activity and devoid of interference with estrogen and aryl hydrocarbon receptor-mediated transcription” (Bioorg Med Chem, 2011).

Assays:
[1] = tested on: Ishikawa; assay: Cytotoxicity against human Ishikawa cells by LDH release assay; assay type: cell-based
[2] = Antagonist activity at estrogen receptor in human Ishikawa cells assessed as inhibition of estradiol-induced alkaline phosphatase expression at 1 uM after 72 hrs relative to ICI182780; assay type: cell-based
[3] = (§1) Agonist activity at estrogen receptor in human Ishikawa cells assessed as increase of estradiol-induced alkaline phosphatase expression at 1 uM after 72 hrs relative to estradiol; assay type: cell-based; settings: ishikawa, 72 h, 1 µM
[4] = target: T1, Estrogen receptor beta (Homo sapiens, UniProt Q92731); assay: Antagonist activity at human ERbeta receptor expressed in human HEK293 cells co-expressing ERE assessed as inhibition of estradiol-induced of luciferase gene expression at 1 uM after 18 hrs relative to ICI182780; assay type: cell-based; settings: hek293, 18 h
[5] = target: T1, Estrogen receptor beta; assay: Agonist activity at human ERbeta receptor expressed in human HEK293 cells co-expressing ERE assessed as increase of estradiol-induced luciferase gene expression at 1 uM after 18 hrs relative to estradiol; assay type: cell-based; settings: for Activity: hek293, 18 h, 1 µM; for activity at 18 h, 1 µM: read-out: Activity
[6] = target: T2, Estrogen receptor (Homo sapiens, UniProt P03372); assay: Antagonist activity at human ERalpha receptor expressed in human MCF7:D5L cells co-expressing ERE assessed as inhibition of estradiol-induced of luciferase gene expression at 1 uM after 18 hrs relative to ICI182780; assay type: cell-based
T2 sequence (P03372 whole entry): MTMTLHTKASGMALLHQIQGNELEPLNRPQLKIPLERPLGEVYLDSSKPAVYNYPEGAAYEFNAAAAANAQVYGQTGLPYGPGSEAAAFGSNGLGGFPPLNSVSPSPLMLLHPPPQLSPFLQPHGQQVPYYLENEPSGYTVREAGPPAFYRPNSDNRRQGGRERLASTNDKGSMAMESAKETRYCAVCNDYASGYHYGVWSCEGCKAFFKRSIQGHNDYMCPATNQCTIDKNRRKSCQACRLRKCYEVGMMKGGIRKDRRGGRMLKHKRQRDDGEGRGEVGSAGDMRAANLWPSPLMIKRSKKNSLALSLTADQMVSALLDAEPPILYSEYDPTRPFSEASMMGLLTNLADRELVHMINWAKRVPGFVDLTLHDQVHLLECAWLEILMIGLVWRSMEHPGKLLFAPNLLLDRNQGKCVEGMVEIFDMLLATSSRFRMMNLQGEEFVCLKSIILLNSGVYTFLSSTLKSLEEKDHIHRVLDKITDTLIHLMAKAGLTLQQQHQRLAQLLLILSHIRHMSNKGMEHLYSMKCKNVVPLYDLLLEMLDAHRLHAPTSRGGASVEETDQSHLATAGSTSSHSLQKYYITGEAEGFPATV

[7] = target: T2, Estrogen receptor; assay: (§2) Partial agonist activity at human ERalpha receptor expressed in human MCF7:D5L cells co-expressing ERE assessed as increase of estradiol-induced luciferase gene expression at 1 uM after 18 hrs relative to estradiol; assay type: cell-based; settings: 18 h, 1 µM
[8] = tested on: HT-22; assay: Neuroprotective activity in mouse HT22 cells assessed as protection against glutamate-induced oxytosis after 24 hrs by MTT assay; assay type: functional, cell-based; settings: HT-22, 24 h
[9] = tested on: HT-22; assay: Neuroprotective activity in mouse HT22 cells assessed as protection against glutamate-induced oxytosis after 24 hrs by MTT assay relative to resveratrol; assay type: functional
[10] = Cytotoxicity against mouse HT22 cells assessed as cell viability at 1 uM after 3 days by LDH release assay relative to control; assay type: cell-based, HT-22; settings: read-out: Activity
[11] = tested on: MCF7; assay: Antiproliferative activity against human stradiol-stimulated MCF7 cells at 1 uM after 96 hrs by MTT assay; assay type: cell-based; settings: mcf7, 96 h
[12] = target: Aryl hydrocarbon receptor (Mus musculus) (UniProt P30561); assay: Activity at AhR expressed in mouse H1L1.1c2 cells co-expressing XRE assessed as increase of benzo[b]fluoranthene-induced luciferase gene expression at 1 uM after 72 hrs
[13] = tested on: estrogen receptor; assay: as §1; assay type: cell-based; settings: Ishikawa cells, read-out: Activity
[14] = target: T3, estrogen receptor alpha (Homo sapiens, UniProt P03372); assay: as §2; assay type: cell-based; settings: read-out: Activity
T3 sequence (P03372 whole entry): T2 sequence (P03372 whole entry)

[15] = tested on: Ishikawa; assay: Cytotoxicity against human Ishikawa cells at 1 uM by LDH release assay; assay type: cell-based
[16] = target: Aryl hydrocarbon receptor (Mus musculus) (UniProt P30561); assay: Activity at AhR expressed in mouse H1L1.1c2 cells co-expressing XRE assessed as induction luciferase gene expression at 10 nM after 72 hrs
[17] = target: Aryl hydrocarbon receptor (Mus musculus) (UniProt P30561); assay: Activity at AhR expressed in mouse H1L1.1c2 cells co-expressing XRE assessed as induction luciferase gene expression at 1 uM after 72 hrs relative to benzo[b]fluoranthene

Sequence of Aryl hydrocarbon receptor (Mus musculus) (P30561 whole entry, looked up): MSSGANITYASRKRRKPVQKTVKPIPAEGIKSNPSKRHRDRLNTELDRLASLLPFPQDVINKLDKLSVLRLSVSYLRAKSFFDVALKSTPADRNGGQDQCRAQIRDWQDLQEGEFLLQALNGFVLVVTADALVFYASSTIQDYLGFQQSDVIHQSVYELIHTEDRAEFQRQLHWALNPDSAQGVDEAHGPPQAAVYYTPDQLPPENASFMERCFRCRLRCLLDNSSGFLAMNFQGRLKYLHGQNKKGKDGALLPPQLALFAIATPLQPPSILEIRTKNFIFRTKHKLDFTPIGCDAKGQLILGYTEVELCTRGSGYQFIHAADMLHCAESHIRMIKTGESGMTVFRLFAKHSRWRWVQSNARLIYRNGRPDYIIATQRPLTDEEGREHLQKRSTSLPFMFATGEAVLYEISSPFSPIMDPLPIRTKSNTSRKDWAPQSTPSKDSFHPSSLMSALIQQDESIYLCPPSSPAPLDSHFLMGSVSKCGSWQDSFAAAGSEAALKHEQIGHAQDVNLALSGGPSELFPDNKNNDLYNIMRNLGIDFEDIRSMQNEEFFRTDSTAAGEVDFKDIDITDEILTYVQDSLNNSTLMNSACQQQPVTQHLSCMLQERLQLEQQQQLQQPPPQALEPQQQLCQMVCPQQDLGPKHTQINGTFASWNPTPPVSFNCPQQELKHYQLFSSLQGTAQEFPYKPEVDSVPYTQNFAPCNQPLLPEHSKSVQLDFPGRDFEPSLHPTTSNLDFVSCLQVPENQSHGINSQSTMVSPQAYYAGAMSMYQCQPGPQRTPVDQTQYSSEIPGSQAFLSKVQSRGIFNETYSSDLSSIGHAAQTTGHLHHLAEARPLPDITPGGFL
T1 sequence (Q92731 whole entry): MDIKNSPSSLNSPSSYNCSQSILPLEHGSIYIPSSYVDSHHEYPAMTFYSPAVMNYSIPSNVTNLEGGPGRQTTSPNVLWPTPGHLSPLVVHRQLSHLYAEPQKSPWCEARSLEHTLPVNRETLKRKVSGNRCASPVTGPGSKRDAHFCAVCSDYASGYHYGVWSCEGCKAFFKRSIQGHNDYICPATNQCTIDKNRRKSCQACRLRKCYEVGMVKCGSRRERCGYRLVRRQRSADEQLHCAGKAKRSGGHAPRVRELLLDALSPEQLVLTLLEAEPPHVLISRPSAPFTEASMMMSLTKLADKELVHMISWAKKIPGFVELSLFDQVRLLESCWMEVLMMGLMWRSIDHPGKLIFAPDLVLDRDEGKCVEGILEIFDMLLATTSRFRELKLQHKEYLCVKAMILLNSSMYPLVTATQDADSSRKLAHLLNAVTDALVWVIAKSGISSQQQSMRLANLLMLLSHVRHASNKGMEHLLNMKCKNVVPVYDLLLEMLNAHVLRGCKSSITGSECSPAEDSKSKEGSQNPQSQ

Row | Compound | Activity [1] | Activity [2] | Activity [3] | Activity [4] | Activity [5] | Activity [6] | Activity [7] | EC50 [8] [nM] | Ratio EC50 [9] | percent cytotoxicity (LDH release relative to control) at 72 h, 1 µM [10] [%] | Activity [11] | Activity [12] [%] | activity at 72 h, 1 µM [13] [%] | activity at 18 h, 1 µM [14] [%] | Activity [15] | activity at 18 h, 1 µM [5] [%] | Activity [16] [%] | Ratio [17]
1 | CC(C)(C)c1cc(/C=C/c2cc(O)cc(O)c2)cc(C(C)(C)C)c1O | Non-toxic | Not Active | Not Active | Not Active | Not Active | Not Active | Not Active | 45 | 104 | -6.7 | Non-toxic | 1.5 | – | – | – | – | – | –
2 | CCC(CC)c1cc(/C=C/C=C/c2cc(O)cc(O)c2)ccc1O | Non-toxic | Not Active | – | Not Active | Not Active | Not Active | – | 79 | 59 | -5 | – | 1.7 | 21 | 37 | – | – | – | –
3 | CCC(CC)c1cc(/C=C/c2cc(O)cc(O)c2)ccc1O | Non-toxic | Not Active | – | Not Active | Not Active | Not Active | – | 432 | 11 | -1 | – | 1.7 | 38 | 65 | – | – | – | –
4 | Oc1ccc(/C=C/c2cc(O)cc(O)c2)cc1 [RESVERATROL] | Non-toxic | Not Active | Not Active | – | – | – | Not Active | 4670 | – | 4 | – | 1.2 | – | – | – | – | – | –
5 | CC(C)(C)c1cc(/C=C/C=C/c2cc(O)cc(O)c2)cc(C(C)(C)C)c1O | Non-toxic | Not Active | Not Active | Not Active | Not Active | Not Active | Not Active | 119 | 39 | -5.3 | – | 1.6 | – | – | – | – | – | –
6 | Oc1ccc(/C=C/C=C/c2cc(O)cc(O)c2)cc1 | – | – | – | – | – | Not Active | Not Active | 3310 | 1.4 | 8 | – | 1.7 | – | – | Toxic | 66 | – | –
7 | CC(C)(C)c1cc(/C=C/c2ccc(O)cc2)ccc1O | Non-toxic | Not Active | – | Not Active | – | Not Active | – | 1060 | 4.4 | -5.3 | – | 1.5 | 25 | 49 | – | 19 | – | –
8 | CCC(CC)c1cc(/C=C/C=C/c2cc(O)cc(O)c2)cc(C(CC)CC)c1O | Non-toxic | Not Active | Not Active | Not Active | Not Active | Not Active | Not Active | 12 | 389 | -6 | Non-toxic | 2.2 | – | – | – | – | – | –
9 | COc1cc(O)cc(/C=C/c2cc(C(C)(C)C)c(O)c(C(C)(C)C)c2)c1 | – | – | – | – | – | – | – | 258 | 18 | – | – | – | – | – | – | – | – | –
10 | CC(C)(C)c1cc(/C=C/C=C/c2cc(O)cc(O)c2)ccc1O | Non-toxic | Not Active | Not Active | Not Active | – | Not Active | – | 91 | 51 | -8.7 | – | 1.6 | – | 34 | – | 18 | – | –
11 | c1ccc2c(c1)-c1cccc3c1c-2cc1ccccc13 [BENZO[B]FLUORANTHENE] | – | – | – | – | – | – | – | – | – | – | – | – | – | – | – | – | 13.1 | –
12 | COc1c(C(C)(C)C)cc(/C=C/c2cc(C(C)(C)C)c(O)c(C(C)(C)C)c2)cc1C(C)(C)C | – | – | – | – | – | – | – | > 10000 | <1 | – | – | – | – | – | – | – | – | –
13 | COc1c(C(C)(C)C)cc(/C=C/c2cc(O)cc(O)c2)cc1C(C)(C)C | – | – | – | – | – | – | – | 621 | 7.5 | – | – | – | – | – | – | – | – | –
14 | CC(C)(C)c1cc(/C=C/c2cc(O)cc(O)c2)ccc1O | Non-toxic | Not Active | Not Active | Not Active | Not Active | Not Active | Not Active | 484 | 9.6 | -6 | – | 1.5 | – | – | – | – | – | –
15 | CC(C)(C)c1cc(/C=C/c2cc(C(C)(C)C)c(O)c(C(C)(C)C)c2)cc(C(C)(C)C)c1O | Non-toxic | Not Active | Not Active | Not Active | Not Active | Not Active | Not Active | 399 | 12 | 1.3 | – | 1.4 | – | – | – | – | – | –
16 | COc1c(C(C)(C)C)cc(/C=C/C=C/c2cc(O)cc(O)c2)cc1C(C)(C)C | – | – | – | – | – | – | – | 410 | 11 | – | – | – | – | – | – | – | – | –
17 | CCC(CC)c1cc(/C=C/c2cc(O)cc(O)c2)cc(C(CC)CC)c1O | Non-toxic | Not Active | Not Active | Not Active | Not Active | Not Active | Not Active | 30 | 156 | -6.7 | Non-toxic | 3 | – | – | – | – | – | 1.9
